Test results as given in patent publication US9593149B2, “Amylin and calcitonin receptor agonist” (Novo Nordisk A/S, priority 2014, dated 2017).
In brackets after ≈: the same amount, converted by molar mass. Numbered stars: 1 amine (or outer) side, 2 acyl side, 3 side chain; on linkers, the order of the positions; unused ones are H or OH. Peptide text beside a SMILES is read from it. * marks the point of attachment. C20 diacid = O=C(O)CCCCCCCCCCCCCCCCCCC(=O)*; C18 diacid = O=C(O)CCCCCCCCCCCCCCCCC(=O)*; γGlu = O=C(O)[C@H](CCC(=O)[*:2])N[*:1]; C14 diacid = O=C(O)CCCCCCCCCCCCC(=O)*

Experiment: Assay (IV) determination of solubility
Type: physicochemical
Procedure: Assay (IV)—Determination of Solubility
The mimylin peptide was dissolved in water at ˜500 nmol/ml and mixed 1:1 with a series of buffers (100 mM glycylglycine pH 3.0, 100 mM glycylglycine pH 4.0, 100 mM glycylglycine pH 5.0, 100 mM bistrispropane pH 6.0, 100 mM bistrispropane pH 6.5, 100 mM bistrispropane pH 7.0, 100 mM bistrispropane pH 7.5, 100 mM bistrispropane pH 8.0).

Compound | Solubility (pH 3.0) | Solubility (pH 4.0) | Solubility (pH 5.0) | Solubility (pH 6.0) | Solubility (pH 6.5) | Solubility (pH 7.0) | Solubility (pH 7.5) | Solubility (pH 8.0) | solubility at 18 h (pH 4.0) [µM] | solubility at 18 h (pH 5.0) [µM]
CC(C)C[C@H](NC(=O)[C@H](C)NC(=O)[C@@H](NC(=O)[C@H](CO)NC(=O)[C@H](CC(C)C)NC(=O)[C@H](CCC(=O)O)NC(=O)[C@H](CO)NC(=O)[C@H](C)NC(=O)[C@H](CCC(=O)O)NC(=O)CCCCCCCCCCCCCCCCC(=O)O)[C@@H](C)O)C(=O)N[C@@H](C)C(=O)NCC(=O)N[C@@H](CCCNC(=N)N)C(=O)N[C@@H](CC(C)C)C(=O)N[C@@H](CO)C(=O)N[C@@H](C)C(=O)N[C@@H](CCC(=O)O)C(=O)N[C@@H](CC(C)C)C(=O)N[C@@H](Cc1cnc[nH]1)C(=O)N[C@@H](CCC(=O)O)C(=O)N[C@@H](CC(C)C)C(=O)N[C@@H](C)C(=O)N[C@H](C(=O)N[C@@H](CC(C)C)C(=O)N1CCC[C@H]1C(=O)N[C@@H](CCCNC(=N)N)C(=O)N[C@H](C(=O)N[C@@H](CCC(=O)O)C(=O)N[C@H](C(=O)NCC(=O)N1CCC[C@H]1C(=O)N[C@@H](CCC(=O)O)C(=O)N[C@@H](CO)C(=O)N1CCC[C@H]1C(N)=O)[C@@H](C)O)[C@@H](C)O)[C@@H](C)O [compound 27, [N-terminal(C18 diacid), 9L, 10A]mimylin] ({C18 diacid}-EASELSTALAGRLSAELHELATLPRTETGPESP-NH2) | ≧200 μM | ≧200 μM | ≧200 μM | ≧200 μM | ≧200 μM | ≧200 μM | ≧200 μM | ≧200 μM | – | –
CC[C@H](C)[C@H](NC(=O)[C@H](C)NC(=O)[C@@H](NC(=O)[C@H](CO)NC(=O)[C@H](CC(C)C)NC(=O)[C@H](CCC(=O)O)NC(=O)[C@H](CO)NC(=O)[C@H](C)NC(=O)[C@H](CCC(=O)O)NC(=O)CCCCCCCCCCCCCCCCC(=O)O)[C@@H](C)O)C(=O)N[C@@H](CC(C)C)C(=O)NCC(=O)N[C@@H](CCCNC(=N)N)C(=O)N[C@@H](CC(C)C)C(=O)N[C@@H](CO)C(=O)N[C@@H](C)C(=O)N[C@@H](CCC(=O)O)C(=O)N[C@@H](CC(C)C)C(=O)N[C@@H](Cc1cnc[nH]1)C(=O)N[C@@H](CCC(=O)O)C(=O)N[C@@H](CC(C)C)C(=O)N[C@@H](C)C(=O)N[C@H](C(=O)N[C@@H](CC(C)C)C(=O)N1CCC[C@H]1C(=O)N[C@@H](CCCNC(=N)N)C(=O)N[C@H](C(=O)N[C@@H](CCC(=O)O)C(=O)N[C@H](C(=O)NCC(=O)N1CCC[C@H]1C(=O)N[C@@H](CCC(=O)O)C(=O)N[C@@H](CO)C(=O)N1CCC[C@H]1C(N)=O)[C@@H](C)O)[C@@H](C)O)[C@@H](C)O [compound 10, [N-terminal(C18 diacid), 9I]mimylin] ({C18 diacid}-EASELSTAILGRLSAELHELATLPRTETGPESP-NH2) | ≧200 μM | – | ≧200 μM | ≧200 μM | ≧200 μM | ≧200 μM | ≧200 μM | ≧200 μM | 182 (≈ 687 µg/mL) | –
CC(C)C[C@H](NC(=O)[C@H](C)NC(=O)[C@H](C)NC(=O)[C@@H](NC(=O)[C@H](CO)NC(=O)[C@H](CC(C)C)NC(=O)[C@H](CCC(=O)O)NC(=O)[C@H](CO)NC(=O)[C@H](C)NC(=O)CC[C@H](NC(=O)CCCCCCCCCCCCCCCCCCC(=O)O)C(=O)O)[C@@H](C)O)C(=O)NCC(=O)N[C@@H](CCCCN)C(=O)N[C@@H](CC(C)C)C(=O)N[C@@H](CO)C(=O)N[C@@H](C)C(=O)N[C@@H](CCC(=O)O)C(=O)N[C@@H](CC(C)C)C(=O)N[C@@H](Cc1cnc[nH]1)C(=O)N[C@@H](CCC(=O)O)C(=O)N[C@@H](CC(C)C)C(=O)N[C@@H](C)C(=O)N[C@H](C(=O)N[C@@H](Cc1ccc(O)cc1)C(=O)N1CCC[C@H]1C(=O)N[C@@H](CCCCN)C(=O)N[C@H](C(=O)N[C@@H](CCC(=O)O)C(=O)N[C@H](C(=O)NCC(=O)N[C@@H](CO)C(=O)NCC(=O)N[C@@H](CO)C(=O)N[C@@H](Cc1ccc(O)cc1)C(N)=O)[C@@H](C)O)[C@@H](C)O)[C@@H](C)O [compound 101, [N-terminal(C20 diacid-gGlu), des1, 12K, 23Y, 25K, 30S, 31G, 33Y]mimylin] ({C20 diacid-γGlu}-ASELSTAALGKLSAELHELATYPKTETGSGSY-NH2) | ≧200 μM | ≧200 μM | ≧200 μM | ≧200 μM | ≧200 μM | ≧200 μM | ≧200 μM | ≧200 μM | – | –
CC[C@H](C)[C@H](NC(=O)[C@H](CCC(=O)O)NC(=O)[C@H](CO)NC(=O)[C@H](C)NC(=O)[C@H](CCC(=O)O)NC(=O)CCCCCCCCCCCCCCCCC(=O)O)C(=O)N[C@@H](CO)C(=O)N[C@H](C(=O)N[C@@H](C)C(=O)N[C@@H](C)C(=O)N[C@@H](CC(C)C)C(=O)NCC(=O)N[C@@H](CCCNC(=N)N)C(=O)N[C@@H](CC(C)C)C(=O)N[C@@H](CO)C(=O)N[C@@H](C)C(=O)N[C@@H](CCC(=O)O)C(=O)N[C@@H](CC(C)C)C(=O)N[C@@H](Cc1cnc[nH]1)C(=O)N[C@@H](CCC(=O)O)C(=O)N[C@@H](CC(C)C)C(=O)N[C@@H](C)C(=O)N[C@H](C(=O)N[C@@H](CC(C)C)C(=O)N1CCC[C@H]1C(=O)N[C@@H](CCCNC(=N)N)C(=O)N[C@H](C(=O)N[C@@H](CCC(=O)O)C(=O)N[C@H](C(=O)NCC(=O)N1CCC[C@H]1C(=O)N[C@@H](CCC(=O)O)C(=O)N[C@@H](CO)C(=O)N1CCC[C@H]1C(N)=O)[C@@H](C)O)[C@@H](C)O)[C@@H](C)O)[C@@H](C)O [Ex. #8, [N-terminal(C18 diacid), 5I]mimylin] ({C18 diacid}-EASEISTAALGRLSAELHELATLPRTETGPESP-NH2) | ≧200 μM | – | – | ≧200 μM | ≧200 μM | ≧200 μM | ≧200 μM | ≧200 μM | 94 (≈ 351 µg/mL) | 35 (≈ 131 µg/mL)
CC(C)C[C@H](NC(=O)[C@H](CCC(=O)O)NC(=O)[C@H](Cc1cnc[nH]1)NC(=O)[C@H](CC(C)C)NC(=O)[C@H](CCC(=O)O)NC(=O)[C@H](C)NC(=O)[C@H](CO)NC(=O)[C@H](CC(C)C)NC(=O)[C@H](CCCNC(=N)N)NC(=O)CNC(=O)[C@H](CC(C)C)NC(=O)[C@@H](NC(=O)[C@H](C)NC(=O)[C@@H](NC(=O)[C@H](CO)NC(=O)[C@H](CC(C)C)NC(=O)[C@H](CCC(=O)O)NC(=O)[C@@H]1CCCN1C(=O)[C@H](C)NC(=O)[C@H](CCC(=O)O)NC(=O)CCCCCCCCCCCCCCCCC(=O)O)[C@@H](C)O)C(C)C)C(=O)N[C@@H](C)C(=O)N[C@H](C(=O)N[C@@H](CC(C)C)C(=O)N1CCC[C@H]1C(=O)N[C@@H](CCCNC(=N)N)C(=O)N[C@H](C(=O)N[C@@H](CCC(=O)O)C(=O)N[C@H](C(=O)NCC(=O)N1CCC[C@H]1C(=O)N[C@@H](CCC(=O)O)C(=O)N[C@@H](CO)C(=O)N1CCC[C@H]1C(N)=O)[C@@H](C)O)[C@@H](C)O)[C@@H](C)O [compound 29, [N-terminal(C18 diacid), 3P, 9V]mimylin] ({C18 diacid}-EAPELSTAVLGRLSAELHELATLPRTETGPESP-NH2) | ≧200 μM | ≧200 μM | ≧200 μM | ≧200 μM | ≧200 μM | ≧200 μM | ≧200 μM | ≧200 μM | – | –
CC(C)C[C@H](NC(=O)[C@H](CO)NC(=O)CNC(=O)[C@H](CO)NC(=O)CNC(=O)[C@@H](NC(=O)[C@H](CCC(=O)O)NC(=O)[C@@H](NC(=O)[C@H](CCCNC(=N)N)NC(=O)[C@@H]1CCCN1C(=O)[C@H](CC(C)C)NC(=O)[C@@H](NC(=O)[C@H](C)NC(=O)[C@H](CC(C)C)NC(=O)[C@H](CCC(=O)O)NC(=O)[C@H](Cc1cnc[nH]1)NC(=O)[C@H](CC(C)C)NC(=O)[C@H](CCC(=O)O)NC(=O)[C@H](C)NC(=O)[C@H](CO)NC(=O)[C@H](CC(C)C)NC(=O)[C@H](CCCNC(=N)N)NC(=O)CNC(=O)[C@H](CC(C)C)NC(=O)[C@H](C)NC(=O)[C@H](C)NC(=O)[C@@H](NC(=O)[C@H](CO)NC(=O)[C@H](CC(C)C)NC(=O)[C@H](CCC(=O)O)NC(=O)[C@H](CO)NC(=O)[C@H](C)NC(=O)CC[C@H](NC(=O)CCCCCCCCCCCCCCCCCCC(=O)O)C(=O)O)[C@@H](C)O)[C@@H](C)O)[C@@H](C)O)[C@@H](C)O)C(N)=O [compound 62, [N-terminal(C20 diacid-gGlu), des1, 30S, 31G, 33L]mimylin] ({C20 diacid-γGlu}-ASELSTAALGRLSAELHELATLPRTETGSGSL-NH2) | ≧200 μM | ≧200 μM | ≧200 μM | ≧200 μM | ≧200 μM | ≧200 μM | ≧200 μM | ≧200 μM | – | –
CC(C)C[C@H](NC(=O)[C@H](C)NC(=O)[C@H](C)NC(=O)[C@@H](NC(=O)[C@H](CO)NC(=O)[C@H](CC(C)C)NC(=O)[C@H](CCC(=O)O)NC(=O)[C@H](CO)NC(=O)[C@H](C)NC(=O)CC[C@H](NC(=O)CCCCCCCCCCCCC(=O)O)C(=O)O)[C@@H](C)O)C(=O)NCC(=O)N[C@@H](CCCNC(=N)N)C(=O)N[C@@H](CC(C)C)C(=O)N[C@@H](CO)C(=O)N[C@@H](C)C(=O)N[C@@H](CCC(=O)O)C(=O)N[C@@H](CC(C)C)C(=O)N[C@@H](Cc1cnc[nH]1)C(=O)N[C@@H](CCC(=O)O)C(=O)N[C@@H](CC(C)C)C(=O)N[C@@H](C)C(=O)N[C@H](C(=O)N[C@@H](CC(C)C)C(=O)N1CCC[C@H]1C(=O)N[C@@H](CCCNC(=N)N)C(=O)N[C@H](C(=O)N[C@@H](CCC(=O)O)C(=O)N[C@H](C(=O)NCC(=O)N1CCC[C@H]1C(=O)N[C@@H](CCC(=O)O)C(=O)N[C@@H](CO)C(=O)N1CCC[C@H]1C(N)=O)[C@@H](C)O)[C@@H](C)O)[C@@H](C)O [compound 19, [N-terminal(C14 diacid-gGlu), des1]mimylin] ({C14 diacid-γGlu}-ASELSTAALGRLSAELHELATLPRTETGPESP-NH2) | ≧200 μM | ≧200 μM | ≧200 μM | ≧200 μM | ≧200 μM | ≧200 μM | ≧200 μM | ≧200 μM | – | –
